Consider one molecule from EPA's ToxValDB 9.5 (doi:10.2903/j.efsa.2009.181r).

Data set [1] relates to Anas platyrhynchos. To be noted: short-term; oral; feed; mortality.
In data set [2] the test system is Pardosa sp. To be noted: acute; duration: 7 days; mortality.
The test system of data set [3] is Avena sativa. The following applies: chronic/long-term; body weight.
Data set [4] relates to Bibionidae. To be noted: chronic/long-term; duration: 28 days; seedling emergence.
Data set [5] concerns Oncorhynchus mykiss.
In data set [6] the test system is Colinus virginianus. The following applies: mortality.
Data set [7] concerns Apis mellifera. To be noted: acute; dermal; mortality.
Data set [8] relates to Tagia sp.
The test system of data set [9] is Daphnia magna. The following applies: chronic/long-term; duration: 21 days; reproduction.
The test system of data set [10] is Rattus norvegicus.

Converted amounts (≈) assume the structure as drawn.

`CC(C)N(C(=O)SCC(Cl)=C(Cl)Cl)C(C)C` [Tri-allate]: the LC50 is above 1210 mg/kg-day in [1]; 0.95 µg/mL (≈ 3.12 µM) in data set [5] (acute, duration: 96 hours, mortality); 549 mg/kg in data set [8] (acute, duration: 14 days, mortality). This molecule also had an LEL in data set [2] of 2280 g/ha. The NOEC came out at 11 g/ha in data set [3]; 0.583 mg/L in [4]; 0.038 mg/L in [5] (chronic/long-term, duration: 88 days, growth); 54 mg/kg-day in data set [6] (reproduction developmental); 27.2 mg/kg in [8] (chronic/long-term, duration: 56 days, reproduction); 0.013 mg/L in data set [9]. Moreover, the LD50 in data set [6] (acute, oral) is 1560 mg/kg-day; in data set [7], above 100 µg/piece; in data set [10] (acute, oral, mortality) it was 1100 mg/kg. The NOAEL was determined as 60 mg/kg-day in data set [10] (acute, oral, clinical signs); 2.5 mg/kg-day in data set [10] (chronic, duration: 2 years, oral, diet, mortality); 6.4 mg/kg-day in [10] (subchronic, duration: 90 days, histopathology: nonneoplastic). Further, the NOEL in data set [10] (chronic, M, mortality) was 9 mg/kg-day.
